Measurements: ChEMBL document CHEMBL1152015, “One-step synthesis of radioiodinated biotin derivatives” (Bioorg Med Chem Lett, 1996)

Columns and labels:
[1] = compound was evaluated for its affinity towards streptavidin.
[2] = Compound was evaluated for its affinity towards avidin

O=C(O)CCCC[C@@H]1SC[C@@H]2NC(=O)N[C@@H]21
Ka [1]: 1e+16 M⁻¹ | Ka [2]: 1e+16 M⁻¹
